According to ChEMBL document CHEMBL3576783, “Synthesis and evaluation of 1,2,4-triazolo[1,5-a]pyrimidines as antibacterial agents against Enterococcus faecium” (J Med Chem, 2015):
In brackets after ≈: the same amount, converted by molar mass.

Test system: Enterococcus faecium
Test: microbe, parasite or virus in culture
Settings: NCTC 7171
Description: Antibacterial activity against Enterococcus faecium NCTC 7171 assessed as bacterial growth inhibition after 16-20 hrs by broth microdilution method

| Compound | MIC |
| --- | --- |
| CSc1nc2n(n1)C(c1ccc(N(C)C)cc1)C(C(N)=O)=C(C)N2 (stereo unspecified) | > 128 mg/L |
| CC1=C(C(=O)Nc2ccc(C)cc2C)C(c2cccs2)n2nc(SCc3cccc(Cl)c3)nc2N1 (stereo unspecified) | > 128 mg/L |
| CC1=C(C(N)=O)C(c2ccncc2)n2nc(SCc3ccccc3)nc2N1 (stereo unspecified) | > 128 mg/L |
| CCc1ccc(C2C(C(=O)Nc3ccccc3OC)=C(C)Nc3nc(SCc4ccccc4)nn32)cc1 (stereo unspecified) | > 128 mg/L |
| CC1=C(C(=O)Nc2ccccc2)C(c2ccc(N(C)C)cc2)n2nc(SCc3ccccc3)nc2N1 (stereo unspecified) | 8 mg/L (≈ 16.1 µM) |
| CC1=C(C(=O)Nc2ccc(C)cc2C)C(c2ccc(Cl)cc2)n2nc(C(=O)OC(C)C)nc2N1 (stereo unspecified) | 16 mg/L (≈ 33.3 µM) |
| CC1=C(C(N)=O)C(c2cccc(C(F)(F)F)c2)n2nc(SCc3ccccc3)nc2N1 (stereo unspecified) | 16 mg/L (≈ 35.9 µM) |
| CC1=C(C(N)=O)C(c2ccc(C(C)C)cc2)n2nc(SCCNC(=O)OCc3ccccc3)nc2N1 (stereo unspecified) | > 128 mg/L |
| CC1=C(C(N)=O)C(c2ccc(N3CCCC3)cc2)n2nc(SCc3ccccc3)nc2N1 (stereo unspecified) | 16 mg/L (≈ 35.8 µM) |
| CC1=C(C(N)=O)C(c2cccc(C(C)C)c2)n2nc(SCc3ccccc3)nc2N1 (stereo unspecified) | 16 mg/L (≈ 38.1 µM) |
| CC(=O)Nc1ccc(C2C(C(N)=O)=C(C)Nc3nc(SCc4ccccc4)nn32)cc1 (stereo unspecified) | 128 mg/L (≈ 295 µM) |
| CC1=C(C(N)=O)C(c2cccc(OC(F)(F)F)c2)n2nc(SCc3ccccc3)nc2N1 (stereo unspecified) | 16 mg/L (≈ 34.7 µM) |
| CCOC(=O)C1=C(C)Nc2nc(SCc3ccccc3)nn2C1c1ccc(N(C)C)cc1 (stereo unspecified) | > 128 mg/L |
| CCc1ccc(C2C(C(=O)Nc3ccccc3)=C(C)Nc3nc(SCc4cccc(OC)c4)nn32)cc1 (stereo unspecified) | > 128 mg/L |
| COc1ncccc1C1C(C(N)=O)=C(C)Nc2nc(SCc3ccccc3)nn21 (stereo unspecified) | 128 mg/L (≈ 313 µM) |
| CC1=C(C(N)=O)C(c2ccc(N(C)C)cc2)n2nc(SCc3ccc(OC(F)(F)F)cc3)nc2N1 (stereo unspecified) | > 128 mg/L |
| CC1=C(C(N)=O)C(c2ccc(N(C)C)cc2)n2nc(SCCNC(=O)OCc3ccccc3)nc2N1 (stereo unspecified) | > 128 mg/L |
| CC1=C(C(N)=O)C(c2ccc(N(C)C)cc2)n2ncnc2N1 (stereo unspecified) | > 128 mg/L |
| COc1ccc(C2C3=C(CCCC3=O)Nc3nc(SCc4ccc(F)cc4)nn32)cc1OC (stereo unspecified) | > 128 mg/L |
| CC1=C(C(=O)Nc2ccccc2)C(c2ccc(C)cc2)n2nc(SCc3ccccc3C)nc2N1 (stereo unspecified) | > 128 mg/L |
| COc1ccc(C2C3=C(CCCC3=O)Nc3nc(SCc4ccc(C(=O)O)cc4)nn32)cc1 (stereo unspecified) | > 128 mg/L |

| Compound | MIC |
| --- | --- |
| CC1=C(C(N)=O)C(c2ccc(N(C)C)cc2)n2nc(SCc3ccc(SC(F)(F)F)cc3)nc2N1 (stereo unspecified) | 8 mg/L (≈ 15.4 µM) |
| COC(=O)c1ccc(CSc2nc3n(n2)C(c2ccc(N(C)C)cc2)C(C(N)=O)=C(C)N3)cc1 (stereo unspecified) | > 128 mg/L |
| CC1=C(C(N)=O)C(c2ccc(N(C)C)cc2)n2nc(N)nc2N1 (stereo unspecified) | > 128 mg/L |
| COc1ccc(C2C(C(N)=O)=C(C)Nc3nc(SCc4ccccc4)nn32)cc1 (stereo unspecified) | > 128 mg/L |
| CCOC(=O)c1nc2n(n1)C(c1ccc(N(C)C)cc1)C(C(N)=O)=C(C)N2 (stereo unspecified) | > 128 mg/L |
| COc1ccc(C2C(C(N)=O)=C(C)Nc3nc(SCc4ccccc4)nn32)cc1OC (stereo unspecified) | > 128 mg/L |
| CC1=C(C(N)=O)C(c2ccc(N(C)C)cc2)n2nc(SCC(N)=O)nc2N1 (stereo unspecified) | > 128 mg/L |
| CC1=C(C(N)=O)C(c2ccc(N(C)C)cc2)n2nc(SCc3ccc(C(F)(F)F)cc3)nc2N1 (stereo unspecified) | > 128 mg/L |
| CC1=C(C(N)=O)C(C2CCCCC2)n2nc(SCc3ccccc3)nc2N1 (stereo unspecified) | > 128 mg/L |
| CC1=C(C(=O)Nc2ccc(C)cc2C)C(c2ccc(C)cc2)n2nc(SCc3cccc(C)c3)nc2N1 (stereo unspecified) | > 128 mg/L |
| COC(=O)c1nc2n(n1)C(c1ccc(N(C)C)cc1)C(C(N)=O)=C(C)N2 (stereo unspecified) | > 128 mg/L |
| CC1=C(C(N)=O)C(c2ccc(C(=O)O)cc2)n2nc(SCCNC(=O)OCc3ccccc3)nc2N1 (stereo unspecified) | > 128 mg/L |
| CC1=C(C(N)=O)C(c2cccnc2)n2nc(SCc3ccccc3)nc2N1 (stereo unspecified) | > 128 mg/L |
| CCc1ccc(C2C(C(N)=O)=C(C)Nc3nc(SCc4ccccc4)nn32)cc1 (stereo unspecified) | 8 mg/L (≈ 19.7 µM) |
| COc1cc(C2C(C(=O)Nc3ccc(C)cc3C)=C(C)Nc3nc(SCc4ccccc4)nn32)ccc1O (stereo unspecified) | 16 mg/L (≈ 30.3 µM) |
| CSc1ccc(C2C(C(N)=O)=C(C)Nc3nc(SCc4ccccc4)nn32)cc1 (stereo unspecified) | > 128 mg/L |
| CC1=C(C(N)=O)C(c2ccc[nH]2)n2nc(SCc3ccccc3)nc2N1 (stereo unspecified) | > 128 mg/L |
| CCOC(=O)C1=C(C)Nc2nc(SCc3ccc(C(=O)O)cc3)nn2C1c1cccs1 (stereo unspecified) | > 128 mg/L |
| CC1=C(C(N)=O)C(c2ccc(N)cc2)n2nc(SCc3ccccc3)nc2N1 (stereo unspecified) | > 128 mg/L |
| CNC(=O)C1=C(C)Nc2nc(SCc3ccccc3)nn2C1c1ccc(N(C)C)cc1 (stereo unspecified) | 8 mg/L (≈ 18.4 µM) |
